Structures can show the parent of a compound that is named as a salt.
test system: NQO1 specific enzyme activity in BEAS-2B cells; test: BEAS-2B NQO1 MTT assay; format: cell-based; conditions: Homo sapiens, BEAS-2B, 48 h, BEAS-2B cells, 48 hours with compound, MTT readout; read-out: EC50 of NQO1 specific activity induction
How it was run: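 NQO1 specific activity, an NRF2 activation marker, read kinetically as absorbance change at 570 nm for 30 min after MTT cocktail addition to crude lysates of BEAS-2B cells exposed 48 h to compound. Three-parameter fit of Delta OD/min against log concentration gives EC50; lysate portion used for Cell Titer Glo.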

`CC[C@@H]1CN(Cc2cc([C@H](c3ccc4c(nnn4C)c3C)C(C)(C)C(=O)O)ccc2C)Cc2cnccc2O1` [Example 204, (R)-3-(1,4-Dimethyl-1H-benzo[d][1,2,3]triazol-5-yl)-3-(3-(((R)-2-ethyl-2,3-dihydropyrido[3,4-f][1,4]oxazepin-4(5H)-yl)methyl)-4-methylphenyl)-2,2-dimethylpropanoic Acid, 0.5 Ethanol] and `CC[C@@H]1CN(Cc2cc(C(c3ccc4c(nnn4C)c3C)C(C)(C)C(=O)O)ccc2C)Cc2cccc(F)c2O1` (stereo partly drawn) [Example 34, 3-(1,4-Dimethyl-1H-benzo[d][1,2,3]triazol-5-yl)-3-(3-(((R)-2-ethyl-9-fluoro-2,3-dihydrobenzo[f][1,4]oxaz-epin-4(5H)-yl)methyl)-4-methylphenyl)-2,2-dimethylpropanoic acid, formic acid salt] fall in the same range of EC50: 0.1 to 1 µM for the first, 0.1 to 1 µM for the second.

First: CC[C@@H]1CN(Cc2cc([C@@H](c3ccc4c(nnn4CC)c3F)[C@@H](C)C(=O)O)ccc2C)Cc2cccc(F)c2O1 [Example 192, (2R,3S)-3-(1-Ethyl-4-fluoro-1H-benzo[d][1,2,3]triazol-5-yl)-3-(3-(((R)-2-ethyl-9-fluoro-2,3-dihydrobenzo[f][1,4]oxazepin-4(5H)-yl)methyl)-4-methylphenyl)-2-methylpropanoic acid]
Second: CC[C@@H]1CN(Cc2cc([C@H](CC(=O)O)c3ccc4c(nnn4C)c3C)ccc2C)Cc2cccc(F)c2O1 [Example 58, (S)-3-(1,4-Dimethyl-1H-benzo[d][1,2,3]triazol-5-yl)-3-(3-(((R)-2-ethyl-9-fluoro-2,3-dihydrobenzo[f][1,4]oxazepin-4(5H)-yl)methyl)-4-methylphenyl)propanoic acid, Sodium salt]
The EC50 of the first is lower: 0.001 to 0.01 µM for the first, 0.01 to 0.1 µM for the second.

First: Cc1ccc(C(CC(=O)O)c2ccc3c(nnn3C)c2C)cc1CN(C)Cc1ccccc1Br (stereo not shown) [Example 15, Ammonium 3-(3-(((2-bromobenzyl)(methyl)amino)methyl)-4-methylphenyl)-3-(1,4-dimethyl-1H-benzo[d][1,2,3]triazol-5-yl)propanoate]
Second: Cc1ccc(C(CC(=O)O)c2ccc3c(nnn3C)c2C)cc1CN1Cc2ccccc2O[C@@H](C)C1 (stereo partly drawn) [Example 98, 3-(1,4-Dimethyl-1H-benzo[d][1,2,3]triazol-5-yl)-3-(4-methyl-3-(((S)-2-methyl-2,3-dihydrobenzo[f][1,4]oxazepin-4(5H)-yl)methyl)phenyl)propanoic Acid, Formic Acid Salt]
The EC50 of the first is higher: 1 to 10 µM for the first, 0.1 to 1 µM for the second.

`CCn1nnc2c(C)c([C@H](c3ccc(C)c(CN4Cc5ccccc5OC(C)(C)C4)c3)[C@@H](C)C(=O)O)ccc21` [Example 208, (2R,3S)-3-(3-((2,2-Dimethyl-2,3-dihydrobenzo[f][1,4]oxazepin-4(5H)-yl)methyl)-4-methylphenyl)-3-(1-ethyl-4-methyl-1H-benzo[d][1,2,3]triazol-5-yl)-2-methylpropanoic acid, 2 Trifluoroacetic Acid Salt] and `CCn1nnc2c(F)c([C@H](c3ccc(C)c(CN4Cc5ncccc5OC(C)(C)C4)c3)[C@@H](C)C(=O)O)ccc21` [Example 190, (2R,3S)-3-(3-((2,2-Dimethyl-2,3-dihydropyrido[2,3-f][1,4]oxazepin-4(5H)-yl)methyl)-4-methylphenyl)-3-(1-ethyl-4-fluoro-1H-benzo[d][1,2,3]triazol-5-yl)-2-methylpropanoic Acid] fall in the same range of EC50: 0.001 to 0.01 µM for the first, 0.001 to 0.01 µM for the second.

First: Cc1ccc([C@@H](c2ccc3c(nnn3C)c2C)C(C)(C)C(=O)O)cc1Cn1ccnc1CN1CCCCCC1 [Example 126, (S)-3-(3-((2-(Azepan-1-ylmethyl)-1H-imidazol-1-yl)methyl)-4-methylphenyl)-3-(1,4-dimethyl-1H-benzo[d][1,2,3]triazol-5-yl)-2,2-dimethylpropanoate, Sodium salt]
Second: CCn1nnc2c(C)c([C@@H](c3ccc(C)c(Cn4ccnc4CN4CCCCC4)c3)[C@H](C)C(=O)O)ccc21 [Example 201, (2S,3R)-3-(1-Ethyl-4-methyl-1H-benzo[d][1,2,3]triazol-5-yl)-2-methyl-3-(4-methyl-3-((2-(piperidin-1-ylmethyl)-1H-imidazol-1-yl)methyl)phenyl)propanoic Acid]
The EC50 of the first is lower: 0.001 to 0.01 µM for the first, 0.1 to 1 µM for the second.

Compared with `CCC1CN(Cc2cc(C(CC(=O)O)c3ccc4c(nnn4C)c3C)ccc2C)Cc2c(Cl)cccc2O1` (stereo not shown) [Example 88, 3-(3-((6-Chloro-2-ethyl-2,3-dihydrobenzo[f][1,4]oxazepin-4(5H)-yl)methyl)-4-methylphenyl)-3-(1,4-dimethyl-1H-benzo[d][1,2,3]triazol-5-yl)propanoic acid], `CC[C@@H]1CN(Cc2cc(C(CC(=O)O)c3ccc4c(nnn4C)c3C)ccc2C)Cc2cc(F)ccc2O1` (stereo partly drawn) [Example 78, 3-(1,4-Dimethyl-1H-benzo[d][1,2,3]triazol-5-yl)-3-(3-(((R)-2-ethyl-7-fluoro-2,3-dihydrobenzo[f][1,4]oxazepin-4(5H)-yl)methyl)-4-methylphenyl)propanoic acid, formic acid salt] is higher in EC50: 0.1 to 1 µM for the first, 1 to 10 µM for the second. The first is the more potent here.

First: COc1ccc2c(c1)CN(Cc1cc([C@H](CC(=O)O)c3ccc4c(nnn4C)c3C)ccc1C)CC(C)(C)O2 [Example 165, (S)-3-(1,4-Dimethyl-1H-benzo[d][1,2,3]triazol-5-yl)-3-(3-((7-methoxy-2,2-dimethyl-2,3-dihydrobenzo[f][1,4]oxazepin-4(5H)-yl)methyl)-4-methylphenyl)propanoic acid, 0.5 Formic Acid Salt]
Second: Cc1ccc(C(CC(=O)O)c2ccc3c(nnn3C)c2C)cc1CN1Cc2cc(C#N)ccc2OC(C)(C)C1 (single isomer, unassigned) [Example 171]
The EC50 of the first is lower: 0.001 to 0.01 µM for the first, 0.01 to 0.1 µM for the second.

Compared with `CCc1ncc2c(n1)CN(Cc1cc(C(CC(=O)O)c3ccc4c(nnn4C)c3C)ccc1C)CC2` (stereo not shown) [Example 13, Ammonium 3-(1,4-dimethyl-1H-benzo[d][1,2,3]triazol-5-yl)-3-(3-((2-ethyl-5,6-dihydropyrido[3,4-d]pyrimidin-7(8H)-yl)methyl)-4-methylphenyl)propanoate], `CC[C@@H]1CN(Cc2cc([C@H](CC(=O)O)c3ccc4c(nnn4C)c3C)ccc2C)Cc2ccncc2O1` [Example 259, (S)-3-(1,4-dimethyl-1H-benzo[d][1,2,3]triazol-5-yl)-3-(3-(((R)-2-ethyl-2,3-dihydropyrido[4,3-f][1,4]oxazepin-4(5H)-yl)methyl)-4-methylphenyl)propanoic acid] is lower in EC50: 1 to 10 µM for the first, 0.1 to 1 µM for the second. The second is the more potent here.

First: Cc1ccc(C(CC(=O)O)c2ccc3c(nnn3C)c2C)cc1CN1Cc2ccccc2OC2(CCC2)C1 (stereo not shown) [Example 244, 3-(3-((3H-Spiro[benzo[f][1,4]oxazepine-2,1′-cyclobutan]-4(5H)-yl)methyl)-4-methylphenyl)-3-(1,4-dimethyl-1H-benzo[d][1,2,3]triazol-5-yl)propanoic Acid]
Second: CC[C@@H]1CN(Cc2cc(C(CC(=O)O)c3ccc4c(nnn4C)c3C)ccc2C)Cc2cccnc2O1 (stereo partly drawn) [Example 116, 3-(1,4-Dimethyl-1H-benzo[d][1,2,3]triazol-5-yl)-3-(3-(((R)-2-ethyl-2,3-dihydropyrido[3,2-f][1,4]oxazepin-4(5H)-yl)methyl)-4-methylphenyl)propanoic Acid, Formic Acid Salt]
The EC50 of the first is lower: 0.01 to 0.1 µM for the first, 1 to 10 µM for the second.

Work on `CCN1CCN(Cc2cc(C(c3ccc4c(nnn4C)c3C)C(C)(C)C(=O)O)ccc2C)Cc2ccccc21` (stereo not shown) [Example 111, 3-(1,4-dimethyl-1H-benzo[d][1,2,3]triazol-5-yl)-3-(3-((1-ethyl-2,3-dihydro-1H-benzo[e][1,4]diazepin-4(5H)-yl)methyl)-4-methylphenyl)-2,2-dimethylpropanoic Acid, Formic Acid Salt] yielded an EC50 of 0.01 to 0.1 µM.

— US10604509B2, “Nrf2 regulators” (GlaxoSmithKline Intellectual Property Development Limited, priority 2015, dated 2020)
